Data on eleven compounds can be found in patent publication US8093297B2 (Mutual Pharmaceutical Company, Inc., priority 2009, dated 2012).

Read-outs that look alike come from different tables or passages of the source.

Data set [1] in a line: Pharmacokinetic study in healthy adults of single vs. multiple oral doses of colchicine tablets (Example 1). Conditions: for metabolite plasma concentration: after oral colchicine 0.6 mg single and multiple doses, LOQ 0.2 ng/mL, 13 subjects.
Protocol: Subjects received a light breakfast served 60 minutes following dose administration in the morning and the evening dose was administered 90 minutes after an evening meal on Days 15 through 24 only. […] Study periods were separated by a 14-day washout. Following the single dose and the last dose of the multiple dose regimen (beginning on the mornings of Day 1 and Day 25, respectively), blood samples were collected (6 mL each) from each subject within 1 hour prior to dosing and after dose administration at study hours 0.5, 1, 1.5, 2, 3, 4, 6, 8, 10, 12, and 24 (while confined) and 36, 48, 72, and 96 (on an outpatient basis).
In tables, the parameter CL/F denotes the apparent total body clearance after administration, calculated as Total Dose/Total AUC0-tau; and Vd/F denotes the apparent total volume of distribution after administration, calculated as Total Dose/(Total AUC∞×Kel).
These include plasma concentration (C), as well as Cmax, Cn, C24, Tmax, and AUC. “Cmax” is the measured plasma concentration of the active agent at the point of maximum, or peak, concentration. “Cmin” is the measured plasma concentration of the active agent at the point of minimum concentration. “Cn” is the measured plasma concentration of the active agent at about n hours after administration. […] The term “Tmax” refers to the time from drug administration until Cmax is reached. “AUC” is the area under the curve of a graph of the measured plasma concentration of an active agent vs. time, measured from one time point to another time point. […] Time t can be the last time point with measurable plasma concentration for an individual formulation. The AUC0-∞, AUC∞ or AUC0-inf is the calculated area under the curve of plasma concentration versus time from time 0 to time infinity.
For data set [2] the following is noted: colchicine given concomitantly with the named drug; cited from earlier work.
The conditions of data set [3]: colchicine in plasma, N=23.
The conditions of data set [4]: colchicine in plasma, single 0.6 mg dose alone (Day 1) or with cyclosporine 100 mg (Day 15), N=23.
Protocol: (§1) This study was an open-label, non-randomized, single-center, one-sequence, two-period drug interaction study conducted in healthy male and female volunteers. Twenty-four (24) non-smoking, non-obese adult volunteers were enrolled. All subjects were dosed and studied as a single cohort, with each subject receiving the same treatment in a non-randomized fashion.
(§2) Pharmacokinetic parameters referred to herein describe the in vivo characteristics of drug (or a metabolite or a surrogate marker for the drug) over time. These include plasma concentration (C), as well as Cmax, Cn, C24, Tmax, and AUC. “Cmax” is the measured plasma concentration of the active agent at the point of maximum, or peak, concentration. “Cmin” is the measured plasma concentration of the active agent at the point of minimum concentration. “Cn” is the measured plasma concentration of the active agent at about n hours after administration. […] The term “Tmax” refers to the time from drug administration until Cmax is reached. “AUC” is the area under the curve of a graph of the measured plasma concentration of an active agent vs. time, measured from one time point to another time point. […] Time t can be the last time point with measurable plasma concentration for an individual formulation. The AUC0-∞, AUC∞ or AUC0-inf is the calculated area under the curve of plasma concentration versus time from time 0 to time infinity.
The conditions of data set [5]: colchicine in plasma; single 0.6 mg dose alone (Day 1) or with steady-state diltiazem (Day 21); N=20; arithmetic mean.
Protocol: as §1, §2
Assay in data set [6]: not given
The source holds these as a separate data set.

For data set [7] the following is noted: for AUC0-t, geometric mean / AUC∞, geometric mean / Cmax, geometric mean: single 0.6 mg dose alone or with steady-state ritonavir 100 mg b.i.d., ln-transformed data.
Protocol: An open-label, non-randomized, single-center, one-sequence, two-period drug interaction study was conducted in healthy male and female volunteers; there will be a 14-day washout between the two periods. Twenty-four (24) non-smoking, non-obese adult volunteers were enrolled. All subjects were dosed and studied as a single cohort, with each subject receiving the same treatment in a non-randomized fashion.
On the evening of Day 18, study participants remained at the clinic for their final study confinement period.
as §2
Data set [8] can be described thus: Clinical drug-drug interaction study of colchicine and verapamil (Example 8). Conditions: for AUC0-inf: both, human, in vivo, 0.6 mg.
Protocol: as §1, §2
The test system of a further data set is FMF patients. The settings on record: reported; cited from earlier work.
A short description of data set [9]: clinical. Conditions: both, human, plasma, 0.6 mg, colchicine in plasma, single 0.6 mg dose alone (Day 1) or with steady-state diltiazem (Day 21), N=20, arithmetic mean.
Protocol: as §1, §2
A short description of data set [10]: clinical. Conditions: both, human, plasma, 0.6 mg.
Protocol: as §1, §2
A short description of data set [11]: clinical. The settings on record: both, human, plasma, oral, 0.6 mg, geometric mean, colchicine in plasma, single 0.6 mg dose alone or with steady-state ketoconazole 200 mg b.i.d., ln-transformed data.
Description: This study was an open-label, non-randomized, single-center, one-sequence, two-period drug interaction study conducted in healthy male and female volunteers; there will be a 14-day washout between the two periods. Twenty-four (24) non-smoking, non-obese adult volunteers were enrolled.
as §2
Data set [12] can be described thus: clinical. The settings on record: both, human, plasma, oral, 0.6 mg, colchicine in plasma.
Protocol: This study was an open-label, non-randomized, single-center, one-sequence, two-period drug interaction study conducted in healthy male and female volunteers; there was a 14-day washout between the two periods. Twenty-four (24) non-smoking, non-obese adult volunteers were enrolled. All subjects were dosed and studied as a single cohort, with each subject receiving the same treatment in a non-randomized fashion.
Azithromycin was administered for 5 consecutive days (2×250 mg once daily [Day 15 only] and then 1×250 mg once daily Days 16-19) beginning on the morning of Day 15, with the last 250 mg azithromycin dose administered on the morning on Day 19.
Azithromycin plasma concentrations were not measured.
as §2
Setting [13] is: colchicine in plasma, single 0.6 mg dose alone (Day 1) or with steady-state azithromycin (Day 19), N=21, arithmetic mean.
Where [14] appears, read: colchicine in plasma, single 0.6 mg dose alone or with steady-state azithromycin.
Where [15] appears, read: colchicine, single 0.6 mg dose alone or with steady-state azithromycin, N=21, arithmetic mean.
The mark [16] stands for this setting: single 0.6 mg dose alone (Day 1) or with steady-state clarithromycin (Day 29), arithmetic mean.
[17] abbreviates: colchicine in plasma, single 0.6 mg dose alone or with steady-state ketoconazole 200 mg b.i.d., ln-transformed data.
[18] abbreviates: colchicine in plasma, single 0.6 mg dose alone (Day 1) or with steady-state ritonavir (Day 19), N=18, arithmetic mean.
The mark [19] stands for this setting: colchicine in plasma, listed as Colchicine + Ritonovir.
Setting [20] is: colchicine in plasma, single 0.6 mg dose alone (Day 1) or with steady-state verapamil (Day 19), N=24, arithmetic mean.
The mark [21] stands for this setting: colchicine in plasma, single 0.6 mg dose alone or with steady-state verapamil HCl ER 240 mg once daily.
The mark [22] stands for this setting: single oral 0.6 mg colchicine following ketoconazole 200 mg b.i.d. x 5 days vs alone.
The mark [23] stands for this setting: co-administration with azithromycin.
Setting [24] is: following azithromycin 500 mg then 250 mg x 4 days vs colchicine alone.
Setting [25] is: multiple (b.i.d. x 10 days) oral doses colchicine 0.6 mg, after last dose Day 25, healthy adults N=13.
The mark [26] stands for this setting: single oral dose colchicine 0.6 mg, fasted, healthy adults N=13.
Where [27] appears, read: co-administration with ritonavir 100 mg b.i.d. x 5 days.
The mark [28] stands for this setting: following ritonavir 100 mg b.i.d. x 5 days vs colchicine alone.

For `COc1cc2c(c(OC)c1O)-c1ccc(OC)c(=O)cc1[C@@H](NC(C)=O)CC2` [2-DMC, 2-O-demethylcolchicine], the metabolite plasma concentration in data set [1] is recorded as under 0.2 ng/mL.

Consider `COc1c(O)cc2c(c1OC)-c1ccc(OC)c(=O)cc1[C@@H](NC(C)=O)CC2` [3-DMC, 3-O-demethylcolchciine], for which the metabolite plasma concentration result in data set [1] is listed as “only one sample from 1 subject (of 13 subjects) had a detectable”.

`CC[C@H]1OC(=O)[C@H](C)[C@@H](O[C@H]2C[C@@](C)(OC)[C@@H](O)[C@H](C)O2)[C@H](C)[C@@H](O[C@@H]2O[C@H](C)C[C@H](N(C)C)[C@H]2O)[C@](C)(OC)C[C@@H](C)C(=O)[C@H](C)[C@@H](O)[C@]1(C)O` [Clarithromycin]: the “Noted or Anticipated Outcome: toxicity reported with concomitant colchicine” value in [2] is given as “fatal colchicine toxicity”.

For `COc1cc2c(c(OC)c1OC)-c1ccc(OC)c(=O)cc1[C@@H](NC(C)=O)CC2` [Colchicine + Azithromycin], under setting [13], the AUC0-t worked out at 17.16 ng·h/mL and the Cmax amounted to 3.05 ng/mL. In addition, under setting [14], the “AUC0-t, geometric mean” value was determined as 16.09052 ng·h/mL; the “AUC∞, geometric mean” value amounted to 18.31283 ng·h/mL; the “Cmax, geometric mean” value worked out at 2.85622 ng/mL. Under setting [15], the CL/F was determined as 35.01 L/h and the t1/2 came out at 6.71 h.

Regarding `COc1cc2c(c(OC)c1OC)-c1ccc(OC)c(=O)cc1[C@@H](NC(C)=O)CC2` [Colchicine + Clarithromycin], in data set [3] (setting [16]), the AUC0-inf is 52.62 ng·h/mL, the AUC0-t is 41.95 ng·h/mL and the peak concentration (Cmax) stood at 8.44 ng/mL. Also, the “Tmax (hr)*” value in data set [3] (single 0.6 mg dose alone or with steady-state clarithromycin, range printed beside) came to 1.00 h.

With `COc1cc2c(c(OC)c1OC)-c1ccc(OC)c(=O)cc1[C@@H](NC(C)=O)CC2` [Colchicine + Cyclosporine], the “Tmax (hr)*” value in data set [4] amounted to 1.13 h. In data set [4] (arithmetic mean), this compound came in with an AUC0-inf of 47.31 ng·h/mL, an AUC0-t of 39.83 ng·h/mL and a Cmax of 8.82 ng/mL.

In the case of `COc1cc2c(c(OC)c1OC)-c1ccc(OC)c(=O)cc1[C@@H](NC(C)=O)CC2` [Colchicine + Diltiazem], in data set [5], the AUC0-t is 17.73 ng·h/mL, the “AUC0-∞” value came out at 22.49 ng·h/mL and the Cmax is 2.80 ng/mL.

On to `COc1cc2c(c(OC)c1OC)-c1ccc(OC)c(=O)cc1[C@@H](NC(C)=O)CC2` [Colchicine + Ketoconazole], for which, in [6] (setting [17]), the “AUC0-t, geometric mean” value came out at 33.2238 ng·h/mL; the “AUC∞, geometric mean” value was determined as 42.143 ng·h/mL; the “Cmax, geometric mean” value is 5.0785 ng/mL. Moreover, in [6] (colchicine in plasma, single 0.6 mg dose alone or with steady-state ketoconazole, N=23, *Median (Range) for Tmax), the “Tmax (hr)*” value came out at 1.02 h.

Turning to `COc1cc2c(c(OC)c1OC)-c1ccc(OC)c(=O)cc1[C@@H](NC(C)=O)CC2` [Colchicine + Ritonavir], in [7] (setting [18]), the AUC0-t is 29.05 ng·h/mL, the “AUC0-∞” value was found to be 35.28 ng·h/mL and the Cmax was found to be 4.99 ng/mL. Besides, in data set [7] (setting [19]), the “AUC0-t, geometric mean” value worked out at 27.79308 ng·h/mL; the “AUC∞, geometric mean” value is 33.77136 ng·h/mL; the “Cmax, geometric mean” value stood at 4.83539 ng/mL.

For the compound `COc1cc2c(c(OC)c1OC)-c1ccc(OC)c(=O)cc1[C@@H](NC(C)=O)CC2` [Colchicine + Verapamil], in [8] (setting [20]), the AUC0-t came out at 24.64 ng·h/mL, the “AUC0-∞” value is 30.59 ng·h/mL and the Cmax is reported as 3.85 ng/mL. Also, in [8] (setting [21]), the “AUC0-t, geometric mean” value was found to be 23.88921 ng·h/mL; the “AUC∞, geometric mean” value amounted to 29.55675 ng·h/mL; the “Cmax, geometric mean” value was determined as 3.63968 ng/mL. The Tmax in data set [8] (colchicine in plasma, single 0.6 mg dose alone or with steady-state verapamil, N=24, head says median for Tmax) was determined as 1.15 h.

Regarding `COc1cc2c(c(OC)c1OC)-c1ccc(OC)c(=O)cc1[C@@H](NC(C)=O)CC2` [Colchicine, (−)-N-[(7S,12aS)-1,2,3,10-tetramethoxy-9-oxo-5,6,7,9-tetrahydrobenzo[a]heptalen-7-yl]-acetamide], the “decrease in total apparent oral clearance” value (shortened to “decrease”) in data set [6] (co-administration with ketoconazole 200 mg b.i.d. x 5 days) worked out at 70%, the “decrease” value under setting [23] is “approximately 30%” and the “decrease” value in [7] (setting [27]) amounted to 70%. Moreover, the “AUC∞, geometric mean” value in data set [6] (setting [17]) was found to be 13.18592 ng·h/mL; the “AUC∞, geometric mean” value under setting [14] was found to be 12.9318 ng·h/mL; the “AUC∞, geometric mean” value in [7] (colchicine in plasma) turned out to be 9.55174 ng·h/mL. The “increase in AUC0-t of colchicine” value in data set [6] (setting [22]) was determined as 190%. Moreover, in data set [6] (setting [22]), the “increase in Cmax of colchicine” value stood at 90%. Besides, in the data set on FMF patients, the “FMF patients who do not show a beneficial response to colchicine administration” value is given as 5-10%. Also, the AUC0-inf came out at 15.53 ng·h/mL in [3] (setting [16]); 15.4 ng·h/mL in data set [8] (AUC0-∞, colchicine in plasma, single 0.6 mg dose alone (Day 1) or with steady-state verapamil (Day 19), N=24, arithmetic mean); 14.4 ng·h/mL in data set [8] (AUC∞, geometric mean, colchicine in plasma, single 0.6 mg dose alone or with steady-state verapamil HCl ER 240 mg once daily); 15 ng·h/mL in “clinical [10]”. The compound further came in with an AUC0-t in data set [3] (setting [16]) of 12.37 ng·h/mL, an AUC0-t in the data set “clinical [9]” of 10 ng·h/mL, an AUC0-t under setting [13] of 11.98 ng·h/mL and an AUC0-t in “clinical [10]” of 12.6 ng·h/mL. Besides, the Cmax in data set [8] (setting [20]) stood at 2.97 ng/mL; in the data set “clinical [10]”, 2.72 ng/mL; in [5] it was 2.17 ng/mL; in “clinical [11]”, 2.6 ng/mL; in “clinical [12]” (single 0.6 mg dose alone (Day 1) or with steady-state azithromycin (Day 19), N=21, arithmetic mean) it was 2.74 ng/mL; in “clinical [12]” (geometric mean, single 0.6 mg dose alone or with steady-state azithromycin), 2.54 ng/mL. In addition, the entries for the “AUC0-t, geometric mean” value in [8] (setting [21]) and in data set [7] (colchicine in plasma) were 12.2564 ng·h/mL and 7.64271 ng·h/mL, respectively. Moreover, the CL/F in data set [8] (colchicine, single 0.6 mg dose alone or with steady-state verapamil, N=24, arithmetic mean) was 43.93 L/h and the CL/F under setting [15] was 50.24 L/h. The “effect on Tmax” value under setting [23] was “not affected” and the “effect on Tmax” value in [7] (setting [27]) was “not affected”. Further, the “AUC0-∞” value under setting [13] was 14.13 ng·h/mL and the “AUC0-∞” value in data set [7] (setting [18]) stood at 10.41 ng·h/mL. The “increase in exposure to colchicine” value (concomitant administration of azithromycin (description)) is “approximately 46%”. The “increase in exposure to colchicine, AUC0-t” value under setting [24] is “approximately 46%”. In addition, under setting [24], the “increase in exposure to colchicine, AUC0-∞” value is “approximately 40%”. Besides, the “increase in mean peak colchicine concentration” value under setting [24] is “approximately 12%” and the “increase in mean peak colchicine concentration” value in data set [7] (setting [28]) is reported as “approximately 170%”. Also, in [1] (0.6 mg b.i.d.), the “attainment of steady state (trough plasma concentrations)” value is reported as “by approximately the eighth day of dosing for most subjects”. For the same compound, the elimination half-life result in [1] (calculated following a single oral dose, stated not an accurate estimate) is “approximately 5 hours”. Moreover, the “Cave, MEAN” value in data set [1] (setting [25]) turned out to be 1.69722 ng/mL. In [1] (setting [25]), the “Cave, MEDIAN” value is 1.70192 ng/mL. Besides, the “Cmin, MEDIAN” value in data set [1] (setting [25]) was 0.9035 ng/mL. Also, the “Ke1, MEAN” value turned out to be 0.0267 h⁻¹ in data set [1] (setting [25]) and 0.1829 h⁻¹ in data set [1] (setting [26]). The results for the “Ke1, MEDIAN” value in [1] (setting [25]) and in data set [1] (setting [26]) were 0.0261 h⁻¹ and 0.1992 h⁻¹, respectively. The “quantifiability of plasma concentrations after a single dose” value in [1] (single 0.6 mg oral dose, healthy adults) is reported as “no longer quantifiable 24 hours post-dose in all but 1 subject”. The secondary colchicine peak entry in data set [1] (single dose or multiple dosing, individual subject data) is on record as “no subject experienced a secondary colchicine peak”. Further, in data set [1] (steady state, Day 23 and Day 24), the “Cmin prior to the morning dose higher than Cmin prior to the evening dose” value is “approximately 12%”. Besides, the Tmax in “clinical [10]” was 1.15 h. Moreover, the “Cmax, geometric mean” value in data set [7] (colchicine in plasma) was determined as 1.79837 ng/mL. In addition, in data set [7] (setting [28]), the “increase in exposure to a single 0.6-mg colchicine” value was “approximately 245%”.
